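96-well plates; 48 h exposure; 5 concentrations. Endpoints by linear interpolation between flanking doses. Not reached: highest tested concentration assigned. The concentration for 50% growth inhibition is given as GI50. TGI is the concentration that stops growth completely.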
Key:
Assay in all cases: DTP human tumour cell line panel, 48 h
[1] = tested on: HCT-116 colon
[2] = tested on: SK-MEL-5 melanoma
[3] = tested on: MCF7 breast
[4] = tested on: HOP-92 NSCLC
[5] = tested on: HCT-15 colon
[6] = tested on: UACC-257 melanoma
[7] = tested on: RXF 393 renal
[8] = tested on: BT-549 breast
[9] = tested on: NCI-H460 lung
[10] = tested on: SNB-75 CNS
[11] = tested on: NCI-H226 lung
[12] = tested on: OVCAR-8 ovarian
[13] = tested on: LOX IMVI melanoma
[14] = tested on: A549 NSCLC
[15] = tested on: T-47D breast
[16] = tested on: HT29 colon
[17] = tested on: SK-OV-3 ovarian
[18] = tested on: MDA-MB-435
[19] = tested on: ACHN renal
[20] = tested on: SK-MEL-28 melanoma
[21] = tested on: HOP-62 NSCLC
[22] = tested on: KM12 colon
[23] = tested on: DU-145 prostate
[24] = tested on: SF-539 CNS
[25] = tested on: CAKI-1 renal
[26] = tested on: CCRF-CEM leukemia
[27] = tested on: NCI-H522 lung
[28] = tested on: SW-620 colon
[29] = tested on: NCI-H23 lung

## Cc1ccc(CN(C)c2ccc(CO)c(Cl)c2)cc1
[1]
  GI50: 0.395 µM
  TGI: 11.6 µM
[2]
  GI50: 5.44 µM
  TGI: 18 µM
[3]
  GI50: 0.676 µM
  TGI: 12 µM
[4]
  GI50: 1.98 µM
  TGI: 36.7 µM
[5]
  GI50: 13.4 µM
  TGI: > 100 µM
[6]
  GI50: 0.344 µM
  TGI: 1.31 µM
[7]
  GI50: 6.9 µM
  TGI: 26.5 µM
[8]
  GI50: 13.2 µM
  TGI: 37 µM
[9]
  GI50: 1.17 µM
  TGI: 11.5 µM
[10]
  GI50: 17.2 µM
  TGI: 78.2 µM
[11]
  GI50: 0.119 µM
  TGI: 0.257 µM
[12]
  GI50: 14.3 µM
  TGI: > 80.1 µM
[13]
  GI50: 17.9 µM
  TGI: > 52.7 µM
[14]
  GI50: 3.69 µM
  TGI: 27.7 µM
[15]
  GI50: 0.367 µM
  TGI: 2.4 µM
[16]
  GI50: 6.07 µM
  TGI: 30 µM
[17]
  GI50: 5.8 µM
  TGI: 30.3 µM
[18]
  GI50: 29.8 µM
  TGI: > 100 µM
[19]
  GI50: 23.6 µM
  TGI: > 100 µM
[20]
  GI50: 15.6 µM
  TGI: 53.6 µM
[21]
  GI50: 3.44 µM
  TGI: 29.9 µM
[22]
  GI50: 21.3 µM
  TGI: 72 µM
[23]
  GI50: 22.6 µM
  TGI: > 100 µM
[24]
  GI50: 30 µM
  TGI: > 94.1 µM
[25]
  GI50: 2.4 µM
  TGI: 45.8 µM
[26]
  GI50: 33.7 µM
  TGI: > 100 µM
[27]
  GI50: 17.2 µM
  TGI: 65.6 µM
[28]
  GI50: 5.23 µM
  TGI: > 100 µM
[29]
  GI50: 12.6 µM
  TGI: > 80 µM
